We go through nine molecules from ChEMBL document CHEMBL1795220, “Antifungal quinazolinones from marine-derived Bacillus cereus and their preparation” (2011).

In brackets after ≈: the same amount, converted by molar mass.

This assay deals with Candida albicans. Kind of assay: Antifungal activity against Candida albicans after 12 hrs by agar dilution method. It counts as functional. For orientation: Agar dilution tests growth on a series of plates holding different concentrations.
By MIC is commonly meant the least concentration at which growth counts as inhibited. For `Oc1nc(Cc2ccccc2)nc2ccccc12`, the minimal inhibitory concentration (MIC) amounted to 10.6 µM (≈ 2.5 µg/mL).
Molecule `CCCC[C@@H](CC)c1nc2ccccc2c(=O)[nH]1` came in with an MIC of 2.5 µM (≈ 0.611 µg/mL).
On to `CCCC[C@H](CC)c1nc2ccccc2c(=O)[nH]1`, for which the MIC worked out at 1.3 µM (≈ 0.318 µg/mL).
The molecule `Cc1nc2ccccc2c(=O)[nH]1` came in with an MIC of 15.6 µM (≈ 2.5 µg/mL).
Regarding `CCCC[C@@H](CC)C1NC(=O)c2ccccc2N1` (mixture of isomers), the minimal inhibitory concentration (MIC) was 2.5 µM.
On to `CCCC[C@H](CC)C1NC(=O)c2ccccc2N1` (mixture of isomers), for which the minimum inhibitory concentration (MIC) turned out to be 5 µM.
`CCCCC(CC)c1nc2ccccc2c(=O)[nH]1` (racemic) displayed an MIC of 10.2 µM (≈ 2.49 µg/mL).
In the case of `CCCCC(CC)C1NC(=O)c2ccccc2N1` (racemic) it was 10.1 µM (≈ 2.49 µg/mL); in that of `CC(=O)N1CCN(c2ccc(OCC3COC(Cn4ccnc4)(c4ccc(Cl)cc4Cl)O3)cc2)CC1` (centres undefined) [KETOCONAZOLE], 0.2 µM (≈ 0.106 µg/mL).
